Data: PubChem BioAssay AID2060889 (Molecular Pharmacology Branch, DTP, NCI, 2025)
Several values for one entry are separate records, joined by “and”; a condition that tells them apart may be missing. Identical values can stand only once. One block for each molecule: values may come before it.

Test system: LG0567-F671-PDC complex spheroids viability
Experiment: Anticancer human tumor LG0567-F671-PDC patient-derived lung adenocarcinoma cell line growth inhibition [RAS]
Conditions: for viability, T/C: stronger effect = lower value
From the text: RAS pathway inhibitors in Combinations in Complex Spheroids
A high-throughput screen of multi-cell type tumor spheroids was designed to identify active combinations of RAS pathway inhibitors and targeted small molecules. Complex spheroids include a stromal component modeled by human endothelial cells (HUVEC) and fibroblasts modeled by human mesenchymal stem cells (MSCs). The concentration ranges selected for each drug and investigational agent were based upon clinically achievable concentrations if the clinical Cmax of the agent was known.
Compounds. The drugs and investigational agents: abemaciclib (NSC768073), cobimetinib (NSC768068), divarasib (GDC6063, NSC841802), docetaxel (NSC628503), GDC-1971 (RLY-1971, NSC841576), gemcitabine (NSC613327), inavolisib (NSC800729), ipatasertib (NSC767898), KB-0742 (NSC834161), MRTX-1133 (NSC836407), osimertinib (NSC779217), RMC-4630 (NSC839698), RMC-6236 (NSC851965), RMC-6291 (NSC852671), Ro-3306 (NSC812927), sapanisertib (NSC764658), SN-38 (NSC673596), staurosporine (NSC755774), SY5609 (NSC837396), and tovorafenib (DAY101, NSC766906), were obtained from the National Cancer Institute (NCI) Developmental Therapeutics Program Chemical Repository. The FDA-approved anticancer drug set is available from the NCI Developmental Therapeutics Program. […] The stock solutions were prepared in dimethyl sulfoxide (DMSO, Sigma-Aldrich, St. Louis, MO, cat. D2650) at 800-fold the tested concentration and stored at -70 degrees C prior to their use. All drugs and investigational agents were tested over a range starting from a high concentration at or near the clinical Cmax and decreasing in half-log increments. If the clinical Cmax for an agent had not been determined, the highest concentration tested was 10 microM.
Cell Culture. All cells were maintained in an incubator at 37 degrees C and 5% CO2 with 95% humidity. The PDC lines were cultured according to standard operating procedures established by the NCI PDMR. All PDCs were thawed and cultured in Matrigel-coated flasks prepared with a working solution of 1X Ham's F-12 nutrient mix, without supplementation (Invitrogen, Waltham, MA, cat. 11765054), 100 U/mL penicillin-streptomycin (Invitrogen, cat. 15140122), and 2.5% Matrigel (Corning Inc., Corning, NY, cat. 354248) for the first three passages. The 362531-283-R-J2-PDC and 782815-120-R-J1-PDC lines were cultured in 6C/Colon 1B media, which includes advanced DMEM/F-12 (Thermo Fisher Scientific, cat. 12634028), 10 mM HEPES (Thermo Fisher Scientific, cat. 15630080), 1X GlutaMAX supplement (Thermo Fisher Scientific, cat. 35050061), 0.1 mg/mL primocin (InvivoGen, San Diego, CA, cat. ant-pm-2), 10% defined fetal bovine serum, heat inactivated (HyClone Laboratories Inc., Logan, UT, cat. SH30070.03HI), 50% L-WRN conditioned media (ATCC, cat. CRL-3276), 1.25 mM N-Acetyl-L-cysteine (Sigma-Aldrich, cat. A9165), 10 mM nicotinamide (Sigma-Aldrich, cat. N0636), 1X B-27 supplement (Thermo Fisher Scientific, cat. 17504044), 1X N-2 supplement (Thermo Fisher Scientific, cat. 17502048), 50 ng/mL human EGF (Thermo Fisher Scientific, cat. PHG0311), and 10 microM Y-27632 dihydrochloride (Tocris Bioscience, cat. 1254). The K12877-001-R-J1-PDC line was cultured in 6I media, which includes all 6C/Colon 1B media plus 10 ng/mL human FGF-10 (PeproTech, cat. 100-26), 1 ng/mL human FGF-2 (PeproTech, cat. 100-18B), 1 µM prostaglandin E2 (Tocris Bioscience, cat. 2296), […] hydrocortisone (Sigma-Aldrich, cat. H4001), and […] bovine insulin (Sigma-Aldrich, cat. I6634). The K86415-001-R-J1-PDC line was cultured in 6D media, which includes all 6C/Colon 1B media components minus the L-WRN conditioned media. The 485176-168-R4-J1-PDC was cultured in PANC media, which includes all 6C/Colon 1B media plus 100 ng/mL human FGF-10 (PeproTech, cat. 100-26), 500 nM SB-431542 (Selleckchem, cat. S1067), and 10 nM gastrin (Tocris Bioscience, cat. 3006). […]
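Also: spheroids exposed to compound for seven days before readout.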
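For IC50 in this document: luminescence signal used as a proxy for viable cells.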

IC50 (curve of first compound, second compound 0.00316 µM): < 3.16 nM
IC50 (curve of first compound, second compound 0.01 µM): < 3.16 nM
IC50 (curve of first compound, second compound 0.0316 µM): < 3.16 nM
IC50 (curve of first compound, second compound 0.1 µM): < 3.16 nM
IC50 (curve of first compound, second compound 0.316 µM): < 3.16 nM
IC50 (curve of first compound, second compound 1 µM): < 3.16 nM
Compound: Nc1ccn(C2OC(CO)C(O)C2(F)F)c(=O)n1 (centres undefined) + C=CC(=O)N1CCN(c2nc(OCC3CCCN3C)nc3c(F)c(-c4nc(N)cc(C)c4C(F)(F)F)c(Cl)cc23)C(C)C1
viability, T/C (second compound 0.00316 µM, first compound 0.00316 µM): 18.4%
viability, T/C (second compound 0.00316 µM, first compound 0.01 µM): 16.4%
viability, T/C (second compound 0.00316 µM, first compound 0.0316 µM): 14.8%
viability, T/C (second compound 0.00316 µM, first compound 0.1 µM): 16.6%
viability, T/C (second compound 0.00316 µM, first compound 0.316 µM): 15.9%
viability, T/C (second compound 0.00316 µM, first compound 1 µM): 15.8%
viability, T/C (second compound 0.01 µM, first compound 0.00316 µM): 16.5%
viability, T/C (second compound 0.01 µM, first compound 0.01 µM): 13.8%
viability, T/C (second compound 0.01 µM, first compound 0.0316 µM): 13.9%
viability, T/C (second compound 0.01 µM, first compound 0.1 µM): 14.3%
viability, T/C (second compound 0.01 µM, first compound 0.316 µM): 14.3%
viability, T/C (second compound 0.01 µM, first compound 1 µM): 14.9%
viability, T/C (second compound 0.0316 µM, first compound 0.00316 µM): 15%
viability, T/C (second compound 0.0316 µM, first compound 0.01 µM): 14.2%
viability, T/C (second compound 0.0316 µM, first compound 0.0316 µM): 12.5%
viability, T/C (second compound 0.0316 µM, first compound 0.1 µM): 14.5%
viability, T/C (second compound 0.0316 µM, first compound 0.316 µM): 15.3%
viability, T/C (second compound 0.0316 µM, first compound 1 µM): 12.8%
viability, T/C (second compound 0.1 µM, first compound 0.00316 µM): 14.2%
viability, T/C (second compound 0.1 µM, first compound 0.01 µM): 13.2%
viability, T/C (second compound 0.1 µM, first compound 0.0316 µM): 14.2%
viability, T/C (second compound 0.1 µM, first compound 0.1 µM): 11.5%
viability, T/C (second compound 0.1 µM, first compound 0.316 µM): 12.9%
viability, T/C (second compound 0.1 µM, first compound 1 µM): 14%
viability, T/C (second compound 0.316 µM, first compound 0.00316 µM): 13.4%
viability, T/C (second compound 0.316 µM, first compound 0.01 µM): 13.8%
viability, T/C (second compound 0.316 µM, first compound 0.0316 µM): 11.6%
viability, T/C (second compound 0.316 µM, first compound 0.1 µM): 12.6%
viability, T/C (second compound 0.316 µM, first compound 0.316 µM): 14.7%
viability, T/C (second compound 0.316 µM, first compound 1 µM): 11.6%
viability, T/C (second compound 1 µM, first compound 0.00316 µM): 14.1%
viability, T/C (second compound 1 µM, first compound 0.01 µM): 16.4%
viability, T/C (second compound 1 µM, first compound 0.0316 µM): 14.7%
viability, T/C (second compound 1 µM, first compound 0.1 µM): 13.7%
viability, T/C (second compound 1 µM, first compound 0.316 µM): 14.2%
viability, T/C (second compound 1 µM, first compound 1 µM): 14.3%

IC50 (curve of compound): > 10000 nM
Compound: C[C@@H](NC(=O)c1ncnc(N)c1Cl)c1ncc(C(=O)Nc2cc(C(F)(F)F)c(Cl)cn2)s1
viability, T/C (compound 0.0316 µM): 115% [middle of 4 runs]
viability, T/C (compound 0.1 µM): 120% (2×) and 125% (2×)
viability, T/C (compound 0.316 µM): 129% and 122% (2×) and 128%
viability, T/C (compound 1 µM): 121% [middle of 4 runs]
viability, T/C (compound 3.16 µM): 102% [middle of 4 runs]
viability, T/C (compound 10 µM): 79% [middle of 4 runs]
